How the values were obtained:
[1] = target: T1, PcitGLNT1 (Planococcus citri, UniProt A0A2L0RIC1); test: cell-based
T1 sequence (A0A2L0RIC1 1-502): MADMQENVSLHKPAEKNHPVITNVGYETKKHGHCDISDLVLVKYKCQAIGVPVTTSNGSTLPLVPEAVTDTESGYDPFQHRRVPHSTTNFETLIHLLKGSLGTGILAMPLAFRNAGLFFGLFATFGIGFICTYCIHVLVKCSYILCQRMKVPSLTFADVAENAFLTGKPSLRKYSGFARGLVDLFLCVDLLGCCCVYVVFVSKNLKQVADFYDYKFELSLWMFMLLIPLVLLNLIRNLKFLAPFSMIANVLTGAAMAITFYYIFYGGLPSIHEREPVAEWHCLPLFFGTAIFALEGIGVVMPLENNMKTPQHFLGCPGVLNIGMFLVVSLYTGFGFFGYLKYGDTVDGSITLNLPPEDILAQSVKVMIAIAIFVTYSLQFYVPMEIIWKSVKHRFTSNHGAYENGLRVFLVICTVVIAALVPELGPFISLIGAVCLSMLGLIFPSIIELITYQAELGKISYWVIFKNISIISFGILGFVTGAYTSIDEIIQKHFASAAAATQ

[2] = target: T2, ApGLNT1 (Acyrthosiphon pisum, UniProt F8RL01); test: cell-based
T2 sequence (F8RL01 1-500): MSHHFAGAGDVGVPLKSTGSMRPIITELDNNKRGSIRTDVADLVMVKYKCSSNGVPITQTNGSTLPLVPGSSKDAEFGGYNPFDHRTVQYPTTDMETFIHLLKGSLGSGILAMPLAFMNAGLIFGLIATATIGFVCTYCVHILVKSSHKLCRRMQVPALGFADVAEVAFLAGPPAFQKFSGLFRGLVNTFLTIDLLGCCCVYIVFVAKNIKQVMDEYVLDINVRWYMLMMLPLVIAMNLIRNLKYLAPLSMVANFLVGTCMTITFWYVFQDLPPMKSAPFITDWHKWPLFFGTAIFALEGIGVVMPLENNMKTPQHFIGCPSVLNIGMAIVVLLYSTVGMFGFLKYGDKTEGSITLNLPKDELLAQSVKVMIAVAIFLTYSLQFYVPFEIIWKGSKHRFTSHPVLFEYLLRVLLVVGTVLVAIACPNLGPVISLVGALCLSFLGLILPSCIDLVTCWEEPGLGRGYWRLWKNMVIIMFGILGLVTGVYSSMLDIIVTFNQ

[3] = target: T3, PhumGLNT1 (Pediculus humanus, UniProt A0A2L0RIB5); test: cell-based
T3 sequence (A0A2L0RIB5 1-513): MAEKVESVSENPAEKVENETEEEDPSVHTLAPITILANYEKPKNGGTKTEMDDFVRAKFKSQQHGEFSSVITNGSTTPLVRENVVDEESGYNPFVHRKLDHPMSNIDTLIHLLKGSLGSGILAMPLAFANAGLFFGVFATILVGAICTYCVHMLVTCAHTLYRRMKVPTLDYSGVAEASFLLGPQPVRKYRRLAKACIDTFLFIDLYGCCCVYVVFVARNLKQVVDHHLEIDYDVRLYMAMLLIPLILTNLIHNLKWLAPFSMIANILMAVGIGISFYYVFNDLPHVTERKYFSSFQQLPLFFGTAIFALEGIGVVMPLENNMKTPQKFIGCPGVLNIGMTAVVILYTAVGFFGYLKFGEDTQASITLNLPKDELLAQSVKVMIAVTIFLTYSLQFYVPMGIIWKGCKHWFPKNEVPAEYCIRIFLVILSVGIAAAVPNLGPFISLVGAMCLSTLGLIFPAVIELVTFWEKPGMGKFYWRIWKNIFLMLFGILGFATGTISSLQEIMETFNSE

[4] = target: T4, DcitGLNT1 (Diaphorina citri, UniProt A0A2L0RID4); test: cell-based
T4 sequence (A0A2L0RID4 1-508): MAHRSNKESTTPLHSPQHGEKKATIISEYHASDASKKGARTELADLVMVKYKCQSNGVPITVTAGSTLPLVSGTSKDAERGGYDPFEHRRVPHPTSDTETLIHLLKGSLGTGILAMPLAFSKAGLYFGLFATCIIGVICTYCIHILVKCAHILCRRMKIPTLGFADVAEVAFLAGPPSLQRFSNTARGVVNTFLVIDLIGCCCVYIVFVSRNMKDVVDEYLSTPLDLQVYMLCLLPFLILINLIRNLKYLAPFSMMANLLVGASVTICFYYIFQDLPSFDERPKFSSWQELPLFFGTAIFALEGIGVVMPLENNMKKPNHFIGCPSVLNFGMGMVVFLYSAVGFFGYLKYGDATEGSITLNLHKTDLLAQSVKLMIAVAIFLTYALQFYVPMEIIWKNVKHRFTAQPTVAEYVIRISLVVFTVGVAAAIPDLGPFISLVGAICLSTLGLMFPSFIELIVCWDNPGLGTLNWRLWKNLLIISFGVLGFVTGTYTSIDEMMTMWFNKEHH

[5] = target: T2, ApGLNT1; test: two-electrode voltage clamp, inward current in Xenopus oocytes; assay type: cell-based
[6] = target: T3, PhumGLNT1; test: as above; assay type: cell-based
[7] = target: T4, DcitGLNT1; test: as above; assay type: cell-based
[8] = target: T1, PcitGLNT1; test: as above; assay type: cell-based

Row | EC50 [5] [mM] | EC50 [6] [mM] | EC50 [7] [mM] | EC50 [8] [mM] | SMILES | IC50 [1] [mM] | IC50 [2] [mM] | IC50 [3] [mM] | IC50 [4] [mM]
1 |  |  |  |  | N=C(N)NCCC[C@H](N)C(=O)O [arginine] | 2.5 ± 0.2 | 5.1 ± 0.9 | 2.8 ± 2 | 6.1 ± 0.8
2 | 5.7 ± 0.8 | 1.5 ± 0.2 | 35.2 ± 18.5 | 2.1 ± 0.2 | NC(=O)CC[C@H](N)C(=O)O [glutamine] |  |  |  | 

Source: paper PMC10614625 (Proceedings of the National Academy of Sciences of the …, 2023)
